In patent US11535611B2, “Pyrazolo[3,4-B]pyridines and imidazo[1,5-B]pyridazines as PDE1 inhibitors” (H. Lundbeck A/S, priority 2017, dated 2022):

How the values were obtained:
Format in all cases: biochemical
PDE1A = PDE1A (Homo sapiens (Human), UniProt P54750); assay: PDE1 inhibition assay, PDE1A; conditions: for inhibition at 1 µM: @ 1 μM compound; for IC50: 15 nM tritium labelled cAMP, 1 hr at room temperature, SPA beads
Protocol: (§1) PDE1A, PDE1B and PDE1C assays were performed as follows: the assays were performed in 60 μL samples containing a fixed amount of the PDE1 enzyme (sufficient to convert 20-25% of the cyclic nucleotide substrate), a buffer (50 mM HEPES (4-(2-hydroxyethyl)-1-piperazineethanesulfonic acid) pH 7.6; 10 mM MgCl2; 0.02% Tween20), 0.1 mg/ml BSA (bovine serum albumin), 15 nM tritium labelled cAMP and varying amounts of inhibitors. Reactions were initiated by addition of the cyclic nucleotide substrate, and reactions were allowed to proceed for 1 hr at room temperature before being terminated through mixing with 20 μL (0.2 mg) yttrium silicate SPA beads (PerkinElmer). The beads were allowed to settle for 1 hour in the dark before the plates were counted in a Wallac 1450 Microbeta counter. The measured signals were converted to activity relative to an uninhibited control (100%) and IC50 values were calculated using XIFit (model 205, IDBS).

PDE1B = PDE1B (Homo sapiens (Human), UniProt Q01064); assay: PDE1 inhibition assay, PDE1B; conditions: 15 nM tritium labelled cAMP, 1 hr at room temperature, SPA beads; read-out: PDE1 B, IC50
Protocol: as §1

PDE1C = PDE1C (Homo sapiens (Human), UniProt Q14123); assay: PDE1 inhibition assay, PDE1C; conditions: for inhibition at 1 µM: @ 1 μM compound, read-out: PDE1 C, % inhibition @ 1 μM; for IC50: 15 nM tritium labelled cAMP, 1 hr at room temperature, SPA beads, read-out: PDE1 C, IC50
Protocol: as §1

Chain of PDE1A (P54750 whole entry): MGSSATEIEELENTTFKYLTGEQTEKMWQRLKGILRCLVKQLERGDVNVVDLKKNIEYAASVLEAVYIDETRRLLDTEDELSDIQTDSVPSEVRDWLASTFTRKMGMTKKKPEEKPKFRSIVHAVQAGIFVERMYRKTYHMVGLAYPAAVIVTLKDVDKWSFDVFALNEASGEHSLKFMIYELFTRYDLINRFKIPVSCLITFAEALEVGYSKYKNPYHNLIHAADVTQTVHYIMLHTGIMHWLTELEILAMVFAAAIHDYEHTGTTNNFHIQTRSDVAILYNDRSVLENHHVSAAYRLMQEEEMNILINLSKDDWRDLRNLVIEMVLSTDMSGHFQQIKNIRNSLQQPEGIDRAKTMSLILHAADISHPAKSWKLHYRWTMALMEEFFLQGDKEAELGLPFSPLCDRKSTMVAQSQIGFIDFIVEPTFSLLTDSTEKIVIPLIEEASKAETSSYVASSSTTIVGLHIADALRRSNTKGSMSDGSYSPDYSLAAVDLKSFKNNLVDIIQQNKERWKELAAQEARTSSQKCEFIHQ
Chain of PDE1B (Q01064 whole entry): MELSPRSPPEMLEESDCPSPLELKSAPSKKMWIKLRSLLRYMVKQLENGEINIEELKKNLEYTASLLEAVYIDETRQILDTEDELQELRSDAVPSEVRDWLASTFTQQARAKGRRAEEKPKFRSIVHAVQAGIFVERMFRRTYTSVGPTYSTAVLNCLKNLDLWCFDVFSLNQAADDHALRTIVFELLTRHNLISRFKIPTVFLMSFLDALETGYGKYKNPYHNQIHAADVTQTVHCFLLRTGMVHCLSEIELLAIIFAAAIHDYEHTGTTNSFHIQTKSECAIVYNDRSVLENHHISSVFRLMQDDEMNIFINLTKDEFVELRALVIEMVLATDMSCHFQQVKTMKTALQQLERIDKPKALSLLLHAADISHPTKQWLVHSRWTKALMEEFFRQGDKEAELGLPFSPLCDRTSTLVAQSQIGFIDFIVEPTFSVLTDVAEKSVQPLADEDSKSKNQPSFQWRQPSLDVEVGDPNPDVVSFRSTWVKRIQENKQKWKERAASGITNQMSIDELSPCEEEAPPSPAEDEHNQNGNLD
Chain of PDE1C (Q14123 whole entry): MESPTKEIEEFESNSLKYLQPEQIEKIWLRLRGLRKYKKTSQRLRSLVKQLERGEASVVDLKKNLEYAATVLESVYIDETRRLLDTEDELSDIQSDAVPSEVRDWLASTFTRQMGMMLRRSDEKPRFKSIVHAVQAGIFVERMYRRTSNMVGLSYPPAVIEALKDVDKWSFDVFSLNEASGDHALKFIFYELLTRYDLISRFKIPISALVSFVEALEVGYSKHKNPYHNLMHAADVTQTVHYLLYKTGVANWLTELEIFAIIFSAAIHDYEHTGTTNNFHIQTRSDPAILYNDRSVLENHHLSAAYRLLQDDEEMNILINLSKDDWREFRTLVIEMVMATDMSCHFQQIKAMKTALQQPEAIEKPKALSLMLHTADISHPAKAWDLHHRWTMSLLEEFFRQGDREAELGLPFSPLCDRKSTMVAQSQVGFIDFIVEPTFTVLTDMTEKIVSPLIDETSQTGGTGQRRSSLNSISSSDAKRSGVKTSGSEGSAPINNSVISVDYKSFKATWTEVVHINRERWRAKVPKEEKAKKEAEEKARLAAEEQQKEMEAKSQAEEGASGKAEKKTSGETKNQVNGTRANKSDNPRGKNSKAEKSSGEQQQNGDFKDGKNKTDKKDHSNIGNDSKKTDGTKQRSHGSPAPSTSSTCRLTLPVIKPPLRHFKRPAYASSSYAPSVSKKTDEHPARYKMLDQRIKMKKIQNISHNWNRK

Structure (SMILES) | inhibition at 1 µM (PDE1A) | IC50 (PDE1B) | inhibition at 1 µM (PDE1C) | IC50 (PDE1A) | IC50 (PDE1C) | inhibition at 10 µM (PDE1A; @ 10 μM compound)
CCOc1ncccc1-c1cc(N2CCCC2)c2c(cnn2C2CCOC2)n1 (racemic) [Example 3, (±)-5-(2-ethoxy-3-pyridyl)-7-pyrrolidin-1-yl-1-tetrahydrofuran-3-yl-pyrazolo[4,3-b]pyridine] | 27% | 550 nM | 29% | – | – | –
CCOc1ncccc1-c1cc(NC2CCOC2)c2c(cnn2C2COC2)n1 (racemic) [Example 5, (±)-5-(2-ethoxy-3-pyridyl)-1-(oxetan-3-yl)-N-tetrahydrofuran-3-yl-pyrazolo[4,3-b]pyridin-7-amine] | 47% | 447 nM | 20% | – | – | –
CCOc1ncccc1-c1cc(NCC2CCC(=O)N2C)c2c(n1)c(C)nn2C(C)C (racemic) [Example 67, (±)-5-[[[5-(2-ethoxy-3-pyridyl)-1-isopropyl-3-methyl-pyrazolo[4,3-b]pyridin-7-yl]amino]methyl]-1-methyl-pyrrolidin-2-one] | – | 11 nM | – | 70 nM | 106 nM | –
CCOc1ncccc1-c1ccn2c(C(C)CC)nc(C)c2n1 (racemic) [Example 76, (±)-2-(2-ethoxy-3-pyridyl)-8-methyl-6-sec-butyl-imidazo[1,5-a]pyrimidine] | – | 9 nM | – | 61 nM | 112 nM | –
CCOc1ncccc1-c1ccn2c(C3CCOC3)nc(C)c2n1 (racemic) [Example 81, (±)-2-(2-ethoxy-3-pyridyl)-8-methyl-6-tetrahydrofuran-3-yl-imidazo[1,5-a]pyrimidine] | – | 145 nM | – | 1130 nM | 1630 nM | –
CCOc1ncccc1-c1cc(N2CCC(C)(F)C2)c2c(cnn2C)n1 (racemic) [Example 87, (±)-5-(2-ethoxy-3-pyridyl)-7-(3-fluoro-3-methyl-pyrrolidin-1-yl)-1-methyl-pyrazolo[4,3-b]pyridine] | 42% | 376 nM | 26% | – | – | –
CCOc1ncccc1-c1cc(N[C@@H]2COC[C@H]2OC)c2c(cnn2C(C)C)n1 (relative stereo) [Example 11, 5-(2-ethoxy-3-pyridyl)-1-isopropyl-N-[trans-4-methoxytetrahydrofuran-3-yl]pyrazolo[4,3-b]pyridin-7-amine] | – | 82 nM | – | 575 nM | 1480 nM | –
CCOc1ncccc1-c1cc(N[C@@H]2CCOC2)c2c(cnn2CC)n1 (single isomer, unassigned) [Example 19, 5-(2-ethoxy-3-pyridyl)-1-ethyl-N-[tetrahydrofuran-3-yl]pyrazolo[4,3-b]pyridin-7-amine] | – | 86 nM | – | 326 nM | 3060 nM | –
CCOc1ncccc1-c1cc(N[C@@H]2CCOC2)c2c(cnn2CC)n1 (single isomer, unassigned) [Example 20, 5-(2-ethoxy-3-pyridyl)-1-ethyl-N-[tetrahydrofuran-3-yl]pyrazolo[4,3-b]pyridin-7-amine] | – | 179 nM | – | 467 nM | 957 nM | –
CCOc1ncccc1-c1cc(N[C@H]2CCOC2)c2c(cnn2C(C)C)n1 (single isomer, unassigned) [Example 21, 5-(2-ethoxy-3-pyridyl)-1-isopropyl-N-[tetrahydrofuran-3-yl]pyrazolo[4,3-b]pyridin-7-amine] | – | 48 nM | – | – | – | –
CCOc1ncccc1-c1cc(N[C@H]2CCOC2)c2c(cnn2C(C)C)n1 (single isomer, unassigned) [Example 22, 5-(2-ethoxy-3-pyridyl)-1-isopropyl-N-[tetrahydrofuran-3-yl]pyrazolo[4,3-b]pyridin-7-amine] | – | 32 nM | – | – | – | –
CCCn1ncc2nc(-c3cccnc3OCC)cc(N[C@@H]3CCOC3)c21 (single isomer, unassigned) [Example 23, 5-(2-ethoxy-3-pyridyl)-1-propyl-N-[tetrahydrofuran-3-yl]pyrazolo[4,3-b]pyridin-7-amine] | – | 171 nM | – | 481 nM | 2540 nM | –
CCCn1ncc2nc(-c3cccnc3OCC)cc(N[C@@H]3CCOC3)c21 (single isomer, unassigned) [Example 24, 5-(2-ethoxy-3-pyridyl)-1-propyl-N-[tetrahydrofuran-3-yl]pyrazolo[4,3-b]pyridin-7-amine] | – | 177 nM | – | 327 nM | 703 nM | –
CCOc1ncccc1-c1ccn2c([C@H](C)CC)nc(C)c2n1 (single isomer, unassigned) [Example 83, 2-(2-ethoxy-3-pyridyl)-8-methyl-6-[1-methylpropyl]imidazo[1,5-a]pyrimidine] | – | 6 nM | – | 51 nM | 77 nM | –
CCOc1ncccc1-c1ccn2c([C@H](C)CC)nc(C)c2n1 (single isomer, unassigned) [Example 84, 2-(2-ethoxy-3-pyridyl)-8-methyl-6-[1-methylpropyl]imidazo[1,5-a]pyrimidine] | – | 33 nM | – | 159 nM | 323 nM | –
CCOc1ncncc1-c1cc(NC2CCOC2)c2c(cnn2C(C)C)n1 (stereo in doubt) [Example 50, 5-(4-ethoxypyrimidin-5-yl)-1-isopropyl-N-[(3R)-tetrahydrofuran-3-yl]pyrazolo[4,3-b]pyridin-7-amine] | – | 916 nM | – | 3000 nM | 1810 nM | –
CCOc1ncccc1-c1cc(N2CCCC2)c2c(n1)c(C)nn2C [Example 1, 5-(2-ethoxy-3-pyridyl)-1,3-dimethyl-7-pyrrolidin-1-yl-pyrazolo[4,3-b]pyridine] | 70% | 170 nM | 49% | – | – | –
CCOc1ncccc1-c1cc(NC2CCOC2)c2c(cnn2C2CCOC2)n1 (centres unmarked) [Example 2, 5-(2-ethoxy-3-pyridyl)-N,1-di(tetrahydrofuran-3-yl)pyrazolo[4,3-b]pyridin-7-amine] | 13% | 445 nM | – | – | 403 nM | –
CCOc1ncccc1-c1cc(N2CCCC2)c2c(cnn2C2COC2)n1 [Example 4, 5-(2-ethoxy-3-pyridyl)-1-(oxetan-3-yl)-7-pyrrolidin-1-yl-pyrazolo[4,3-b]pyridine] | – | 95 nM | 56% | 641 nM | – | –
CCOc1ncccc1-c1cc(NC[C@@H]2CCCO2)c2c(cnn2C(C)C)n1 [Example 6, 5-(2-ethoxy-3-pyridyl)-1-isopropyl-N-[[(2S)-tetrahydrofuran-2-yl]methyl]pyrazolo[4,3-b]pyridin-7-amine] | – | 111 nM | – | 653 nM | 1390 nM | –
CCOc1ncccc1-c1cc(NC[C@H]2CCCO2)c2c(cnn2C(C)C)n1 [Example 7, 5-(2-ethoxy-3-pyridyl)-1-isopropyl-N-[[(2R)-tetrahydrofuran-2-yl]methyl]pyrazolo[4,3-b]pyridin-7-amine] | – | 83 nM | – | 449 nM | 1710 nM | –
CCOc1ncccc1-c1cc(N[C@@H]2CCCOC2)c2c(cnn2C(C)C)n1 [Example 8, 5-(2-ethoxy-3-pyridyl)-1-isopropyl-N-[(3R)-tetrahydropyran-3-yl]pyrazolo[4,3-b]pyridin-7-amine] | – | 423 nM | – | 2160 nM | 2870 nM | –
CCOc1ncccc1-c1cc(N[C@H]2CCCOC2)c2c(cnn2C(C)C)n1 [Example 9, 5-(2-ethoxy-3-pyridyl)-1-isopropyl-N-[(3S)-tetrahydropyran-3-yl]pyrazolo[4,3-b]pyridin-7-amine] | – | 295 nM | – | 687 nM | 2700 nM | –
CCOc1ncccc1-c1cc(NC2CCOCC2)c2c(cnn2C(C)C)n1 [Example 10, 5-(2-ethoxy-3-pyridyl)-1-isopropyl-N-tetrahydropyran-4-yl-pyrazolo[4,3-b]pyridin-7-amine] | – | 126 nM | – | – | 2660 nM | 71%
CCOc1ncccc1-c1cc(NC(C)C)c2c(cnn2C(C)C)n1 [Example 12, 5-(2-ethoxy-3-pyridyl)-N,1-diisopropyl-pyrazolo[4,3-b]pyridin-7-amine] | – | 108 nM | – | 1120 nM | 2230 nM | –
CCOc1ncccc1-c1cc(NC)c2c(cnn2C(C)C)n1 [Example 13, 5-(2-ethoxy-3-pyridyl)-1-isopropyl-N-methyl-pyrazolo[4,3-b]pyridin-7-amine] | – | 85 nM | – | 1030 nM | 1060 nM | –
CCOc1ncccc1-c1cc(N2CCCC2)c2c(cnn2C)n1 [Example 14, 5-(2-ethoxy-3-pyridyl)-1-methyl-7-pyrrolidin-1-yl-pyrazolo[4,3-b]pyridine] | – | 640 nM | – | 1090 nM | 3500 nM | –
CCOc1ncccc1-c1nc2c(C)nn(CC)c2cc1C [Example 15, 5-(2-ethoxy-3-pyridyl)-1-ethyl-3,6-dimethyl-pyrazolo[4,3-b]pyridine] | – | 156 nM | – | 1010 nM | 1890 nM | –
CCOc1ncccc1-c1cc(N2CCCC2)c2c(cnn2CC)n1 [Example 16, 5-(2-ethoxy-3-pyridyl)-1-ethyl-7-pyrrolidin-1-yl-pyrazolo[4,3-b]pyridine] | – | 129 nM | – | 461 nM | 1820 nM | –
CCOc1ncccc1-c1cc(N2CCCC2)c2c(cnn2C(C)C)n1 [Example 17, 5-(2-ethoxy-3-pyridyl)-1-isopropyl-7-pyrrolidin-1-yl-pyrazolo[4,3-b]pyridine] | – | 83 nM | 50% | 353 nM | – | –
